Assay results: patent publication US20250195521A1 (Revolution Medicines, Inc., priority 2020, published 2025)

tested on: K-Ras G12C (NCI-H358 cells); experiment: Potency assay: pERK in NCI-H358 cells; format: cell-based, human; conditions: Homo sapiens, NCI-H358, 4 h, read-out: pERK EC50 (H358 KRAS G12C)
Method: The purpose of this assay is to measure the ability of test compounds to inhibit K-Ras in cells. […] This procedure measures a decrease in cellular pERK in response to test compounds. The procedure described below in NCI-H358 cells is applicable to K-Ras G12C.
Note: This protocol may be executed substituting other cell lines to characterize inhibitors of other RAS variants, including, for example, AsPC-1 (K-Ras G12D), Capan-1 (K-Ras G12V), or NCI-H1355 (K-Ras G13C).
NCI-H358 cells were grown and maintained using media and procedures recommended by the ATCC. On the day prior to compound addition, cells were plated in 384-well cell culture plates (40 μl/well) and grown overnight in a 37° C., 5% CO2 incubator. Test compounds were prepared in 10, 3-fold dilutions in DMSO, with a high concentration of 10 mM. On the day of assay, 40 nL of test compound was added to each well of cell culture plate using an Echo550 liquid handler (LabCyte®). Concentrations of test compound were tested in duplicate. After compound addition, cells were incubated 4 hours at 37° C., 5% CO2. Following incubation, culture medium was removed and cells were washed once with phosphate buffered saline.
In some experiments, cellular pERK level was determined using the AlphaLISA SureFire Ultra p-ERK1/2 Assay Kit (PerkinElmer). Cells were lysed in 25 μL lysis buffer, with shaking at 600 RPM at room temperature. […] After a 2-hour incubation in the dark, 5 μL donor mix was added, plate was sealed, and incubated 2 hours at room temperature. Signal was read on an Envision plate reader (PerkinElmer) using standard AlphaLISA settings. Analysis of raw data was carried out in Excel (Microsoft) and Prism (GraphPad). Signal was plotted vs. the decadal logarithm of compound concentration, and IC50 was determined by fitting a 4-parameter sigmoidal concentration response model.
In other experiments, cellular pERK was determined by In-Cell Western. […] Fixed cells were washed 4 times for 5 minutes with TBS containing 0.1% Triton X-100 (TBST) and then blocked with 100 μL Odyssey blocking buffer (LI-COR) for 60 minutes at room temperature. Primary antibody (PERK, CST-4370, Cell Signaling Technology) was diluted 1:200 in blocking buffer, and 50 μL was added to each well and incubated overnight at 4° C. Cells were washed 4 times for 5 minutes with TBST. Secondary antibody (IR-800CW rabbit, LI-COR, diluted 1:800) and DNA stain DRAQ5 (LI-COR, diluted 1:2000) were added and incubated 1-2 hours at room temperature. Cells were washed 4 times for 5 minutes with TBST. Plates were scanned on a Li—COR Odyssey CLx Imager. Analysis of raw data was carried out in Excel (Microsoft) and Prism (GraphPad). Signal was plotted vs. the decadal logarithm of compound concentration, and IC50 was determined by fitting a 4-parameter sigmoidal concentration response model.

Compound	EC50 [µM]
C=CC(=O)N1CC[C@H](C(=O)N(C)[C@H](C(=O)N[C@H]2Cc3cc(OC(=O)N(C)CC(=O)O)cc(c3)-c3ccc4c(c3)c(c(-c3ccccc3CCOC)n4CC)CC(C)(C)COC(=O)[C@@H]3CCCN(N3)C2=O)C(C)C)C1 [Compound A78]	< 5
CCn1c(-c2cccnc2[C@H](C)OC)c2c3cc(ccc31)-c1cc(O)cc(c1)C[C@H](NC(=O)[C@H](C(C)C)N(C)C(=O)[C@@H]1CC1(F)F)C(=O)N1CCC[C@H](N1)C(=O)OCC(C)(C)C2 [Compound A167]	< 5

same assay, conditions: Homo sapiens; NCI-H358 cells, 4 hours; read-out: pERK EC50 (H358 KRAS G12C)

Compound	EC50 [µM]
CCn1c(-c2cnccc2COC)c2c3cc(ccc31)-c1cc(O)cc(c1)C[C@H](NC(=O)[C@H](C(C)C)N(C)C(=O)[C@H]1CCN(S(=O)(=O)N3CC(O)C3)C1)C(=O)N1CCC[C@H](N1)C(=O)OCC(C)(C)C2 [Compound A37, (2S)—N-[(8S,14S)-22-ethyl-4-hydroxy-21-[4-(methoxymethyl)pyridin-3-yl]-18,18-dimethyl-9,15-dioxo-16-oxa-10,22,28-triazapentacyclo [18.5.2.1^2,6.1^10,14.0^23,27]nonacosa-1 (26),2,4,6 (29),20,23 (27),24-heptaen-8-yl]-2-{1-[(3S)-1-[(3-hydroxyazetidin-1-yl)sulfonyl]pyrrolidin-3-yl]-N-methylformamido}-3-methylbutanamide]	< 5
CCn1c(-c2cnccc2COC)c2c3cc(ccc31)-c1cc(O)cc(c1)C[C@H](NC(=O)[C@H](C(C)C)N(C)C(=O)CO)C(=O)N1CCC[C@H](N1)C(=O)OCC(C)(C)C2 [Compound A43, (2S)—N-[(8S,14S)-22-ethyl-4-hydroxy-21-[4-(methoxymethyl)pyridin-3-yl]-18,18-dimethyl-9,15-dioxo-16-oxa-10,22,28-triazapentacyclo [18.5.2.1^2,6.1^10,14.0^23,27]nonacosa-1 (26), 2,4,6 (29),20,23 (27),24-heptaen-8-yl]-2-(2-hydroxy-N-methylacetamido)-3-methylbutanamide]	< 5
CCn1c(-c2cnccc2COC)c2c3cc(ccc31)-c1cc(O)cc(c1)C[C@H](NC(=O)[C@H](C(C)C)N1CCCCC1=O)C(=O)N1CCC[C@H](N1)C(=O)OCC(C)(C)C2 [Compound A44]	< 5
CCn1c(-c2cnccc2COC)c2c3cc(ccc31)-c1cc(O)cc(c1)C[C@H](NC(=O)[C@H](C(C)C)N(C)S(C)(=O)=O)C(=O)N1CCC[C@H](N1)C(=O)OCC(C)(C)C2 [Compound A57, (2S)—N-[(8S,14S)-22-ethyl-4-hydroxy-21-[4-(methoxymethyl)pyridin-3-yl]-18,18-dimethyl-9,15-dioxo-16-oxa-10,22,28-triazapentacyclo [18.5.2.1^2,6.1^10,14.0^23,27]nonacosa-1 (26),2,4,6 (29),20,23 (27),24-heptaen-8-yl]-3-methyl-2-(N-methylmethanesulfonamido) butanamide]	< 5
CCn1c(-c2cccnc2[C@H](C)OC)c2c3cc(ccc31)-c1cccc(c1)C[C@H](NC(=O)[C@H](C(C)C)N(C)C(=O)[C@H]1CCN(C(C)=O)C1)C(=O)N1CCC[C@H](N1)C(=O)OCC(C)(C)C2 [Compound A60]	< 5
CCn1c(-c2cnccc2COC)c2c3cc(ccc31)-c1cc(O)cc(c1)C[C@H](NC(=O)[C@H]([C@@H](C)OC)N(C)C(C)=O)C(=O)N1CCC[C@H](N1)C(=O)OCC(C)(C)C2 [Compound A76]	< 5
CCn1c(-c2cnccc2COC)c2c3cc(ccc31)-c1cc(O)cc(c1)C[C@H](NC(=O)[C@H](C(C)C)N(C)C(=O)[C@@H]1CCOC1)C(=O)N1CCC[C@H](N1)C(=O)OCC(C)(C)C2 [Compound A94]	< 5
CCn1c(-c2cnccc2COC)c2c3cc(ccc31)-c1cc(O)cc(c1)C[C@H](NC(=O)[C@H](C(C)C)N(C)C(=O)OC1CN(C)C1)C(=O)N1CCC[C@H](N1)C(=O)OCC(C)(C)C2 [Compound A101]	< 5
CCn1c(-c2cccnc2[C@H](C)OC)c2c3cc(ccc31)-c1cccc(c1)C[C@H](NC(=O)[C@H](C(C)C)N(C)C(=O)[C@H]1CCN(C(=O)CN)C1)C(=O)N1CCC[C@H](N1)C(=O)OCC(C)(C)C2 [Compound A105]	< 5
CCn1c(-c2cccnc2[C@H](C)OC)c2c3cc(ccc31)-c1csc(n1)C[C@H](NC(=O)[C@H](C(C)C)N(C)C(=O)[C@H]1CCN(C)C1)C(=O)N1CCC[C@H](N1)C(=O)OCC(C)(C)C2 [Compound A108]	< 5
CCn1c(-c2cccnc2[C@H](C)OC)c2c3cc(ccc31)-c1cc(O)cc(c1)C[C@H](NC(=O)[C@H](C(C)C)N(C)C(=O)[C@H]1CCN(CCO)C1)C(=O)N1CCC[C@H](N1)C(=O)OCC(C)(C)C2 [Compound A111]	< 5
CCn1c(-c2cccnc2[C@H](C)OC)c2c3cc(ccc31)-c1cc(O)cc(c1)C[C@H](NC(=O)[C@H](C(C)C)N(C)C(=O)[C@@H]1CCNC1)C(=O)N1CCC[C@H](N1)C(=O)OCC(C)(C)C2 [Compound A129]	< 5
CCn1c(-c2cccnc2[C@H](C)OC)c2c3cc(ccc31)-c1cc(O)cc(c1)C[C@H](NC(=O)[C@H](C(C)C)N(C)C(=O)C1CC3CC1CN3)C(=O)N1CCC[C@H](N1)C(=O)OCC(C)(C)C2 (stereo partly drawn) [Compound A133]	< 5
CCn1c(-c2cccnc2[C@H](C)OC)c2c3cc(ccc31)-c1csc(n1)C[C@H](NC(=O)[C@H](C1CCCC1)N(C)C(C)=O)C(=O)N1CCC[C@H](N1)C(=O)OCC(C)(C)C2 [Compound A141]	< 5
CCn1c(-c2cccnc2[C@H](C)OC)c2c3cc(ccc31)-c1cc(O)cc(c1)C[C@H](NC(=O)[C@H](C(C)C)N(C)C(=O)C1CC13CCNC3)C(=O)N1CCC[C@H](N1)C(=O)OCC(C)(C)C2 (stereo partly drawn) [Compound A148]	< 5
C=C[C@@H]1C[C@]1(N)C(=O)N(C)[C@H](C(=O)N[C@H]1Cc2cc(O)cc(c2)-c2ccc3c(c2)c(c(-c2cccnc2[C@H](C)OC)n3CC)CC(C)(C)COC(=O)[C@@H]2CCCN(N2)C1=O)C(C)C [Compound A149]	< 5
CCn1c(-c2cccnc2[C@H](C)OC)c2c3cc(ccc31)-c1cc(O)cc(c1)C[C@H](NC(=O)[C@H](C(C)C)N(C)C(=O)C1(C#N)CC1)C(=O)N1CCC[C@H](N1)C(=O)OCC(C)(C)C2 [Compound A159]	< 5
CCn1c(-c2cccnc2[C@H](C)OC)c2c3cc(ccc31)-c1cc(O)cc(c1)C[C@H](NC(=O)[C@H](C(C)C)N(C)C(=O)[C@H]1CC1(F)F)C(=O)N1CCC[C@H](N1)C(=O)OCC(C)(C)C2 [Compound A166]	< 5
CCn1c(-c2cccnc2[C@H](C)OC)c2c3cc(ccc31)-c1cc(O)cc(c1)C[C@H](NC(=O)[C@H](C(C)C)N(C)C(=O)C1Cc3cccnc3C1)C(=O)N1CCC[C@H](N1)C(=O)OCC(C)(C)C2 (stereo partly drawn) [Compound A250]	< 5
CCn1c(-c2cnccc2COC)c2c3cc(ccc31)-c1cc(O)cc(c1)C[C@H](NC(=O)C1CCCC1C(F)F)C(=O)N1CCC[C@H](N1)C(=O)OCC(C)(C)C2 (stereo partly drawn) [Compound A261]	< 5
CCN1C[C@@H](C(=O)N(C)[C@H](C(=O)N[C@H]2Cc3cc(O)cc(c3)-c3ccc4c(c3)c(c(-c3cnccc3COC)n4CC)CC(C)(C)COC(=O)[C@@H]3CCCN(N3)C2=O)C(C)C)CC1=O [Compound A262]	< 5
CCn1c(-c2cccnc2[C@H](C)OC)c2c3cc(ccc31)-c1csc(n1)C[C@H](NC(=O)N1CCCC1)C(=O)N1CCC[C@H](N1)C(=O)OCC(C)(C)C2 [Compound A267]	< 5
CCn1c(-c2cccnc2[C@H](C)OC)c2c3cc(ccc31)-c1csc(n1)C[C@H](NC(=O)[C@H](C(C)C)N(C)C(=O)N1CC[C@@H]1C(=O)NC)C(=O)N1CCC[C@H](N1)C(=O)OCC(C)(C)C2 [Compound A281]	< 5
CCn1c(-c2cccnc2[C@H](C)OC)c2c3cc(ccc31)-c1csc(n1)C[C@H](NC(=O)[C@H](C(C)C)N(C)C(=O)N1CCOC3(CN(C)C3)C1)C(=O)N1CCC[C@H](N1)C(=O)OCC(C)(C)C2 [Compound A294]	< 5

same assay, conditions: read-out: pERK EC50 (H358 KRAS G12C); NCI-H358 cells, 4 hours

Compound	EC50 [µM]
C=CC(=O)N1CC[C@H](C(=O)N(C)[C@H](C(=O)N[C@H]2Cc3cc(N)cc(c3)-c3ccc4c(c3)c(c(-c3ccccc3COC)n4CC)CC(C)(C)COC(=O)[C@@H]3CCCN(N3)C2=O)C(C)C)C1 [Compound A42]	< 5
